According to patent publication US9862748B2, “Peptide compounds and methods of production and use thereof” (priority 2012, dated 2018):

What was measured:
[1] = tested on: Pseudomonas aeruginosa ATCC® 27853™; format: cell-based; conditions: 3.12-25 μM; 180 minutes
In short: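 P. aeruginosa ATCC 27853 at 1×10^6 CFU/ml incubated 180 min with peptides (25–3.12 μM, pH 5.5 or 7.2; or 150–37.5 μg/ml, pH 5.5) versus tryptone saline; gentamicin 4 μg/ml control. Surviving CFU counted after overnight plating, expressed as log reduction in CFU/ml.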

[2] = tested on: Acinetobacter baumannii ATCC® BAA-747™; format: cell-based; conditions: 3.12-25 μM; 60 minutes
In short: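 Peptides at 25, 12.5, 6.25 and 3.12 μM were incubated with 1×10^6 CFU/ml bacteria at pH 5.5 or 7.2, with tryptone saline as negative control and gentamicin (4 μg/ml) as positive control. Incubation was 60 min for A. baumannii and 180 min for P. aeruginosa. Surviving CFU counted after overnight plating, expressed as log reduction in CFU/ml.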

LDREANLTSSVTILPLPLQNATVEAGTR (listed as Homo sapiens) [Peptide 95-122]
activity against Pseudomonas aeruginosa at either pH (5.5, 7.2) [1]: not active | activity against Acinetobacter at either pH (5.5, 7.2) [2]: not active
